Measurements from USRE44873E1, “Imidazole-5-carboxylic acid derivatives, the preparation method therefor and the uses thereof” (Salubris Asset Management Co., Ltd., priority 2006, dated 2014).

Columns and labels:
in vivo = conditions: both, Kunming, mouse, po
Description: (§1) 20 Kunming mice with weight of 18-22 g are randomly divided into two groups, each group including 10 ones with two identical halves for male and female. The mice are fasted for 6 hours, and then the two groups of mice are administrated by intragastric infusion with the compounds of the present invention in the amount of 10 g/kg, 5 g/kg, 2 g/kg. The administration volume is 0.8 ml/20 g, and the solvent is 0.5% CMC-Na. Observe and accumulate the number of dead animals during 14 days after administration (one administration) to calculate LD50.

[1] = cited from earlier work
[2] = relative to EXP3174; cited from earlier work
[3] = test system: spontaneously hypertensive rat (SHR); test: Effect of lowering blood pressure in spontaneously hypertensive rats (administration through stomach fistula); format: in vivo; conditions: female SHR, 30 mg/kg through stomach fistula, recorded in 6 hours after administration; for Systolic blood pressure post-administration: first figure of pair; for Diastolic blood pressure post-administration: second figure of pair
Description: A female spontaneously hypertensive rat (SHR) is anaesthetize by abdominal cavity injection with diazepam of 5 mg/kg and ketamine hydrochloride of 50 mg/kg and its back is fixed. An artery conduit is inserted from the left of a femoral artery to a lower abdominal aorta, and then a stomach fistula treatment is operated. After 20-30 hours for postoperative recovery, the artery conduit is connected to a pressure transducer by a perfusion three-way tube. Blood pressure signals per pulse are transformed into biologic signals by the pressure transducer, and systolic blood pressures and diastolic blood pressures per pulse are real-time recorded by a computer. After the SHR is connected to the computer system for 4-5 hours, blood pressures and palpitation intervals in one hour are recorded as normal comparing data before administration. Afterwards, the medicine with a dosage of 30 mg/kg and a volume of 2 ml/kg is administrated through the stomach fistula. Blood pressures in 6 hours after administration are continuously recorded to observe change of systolic blood pressure and diastolic blood pressure.
A female spontaneously hypertensive rat (SHR) is anaesthetize by abdominal cavity injection with diazepam of 5 mg/kg and ketamine hydrochloride of 50 mg/kg and its back is fixed. An artery conduit is inserted from the left of a femoral artery to a lower abdominal aorta, and than a stomach fistula treatment is operated. After 20-30 hours for postoperative recovery, the artery conduit is connected to it pressure transducer by a perfusion three-way tube. Blood pressure signals per pulse are transformed into biologic signals by pressure transducer, and systolic blood pressures and diastolic blood pressures per pulse are real-time recorded by a computer. When the SHR is connected to the computer system for 4-5 hours, blood pressures and palpitation intervals in one hour are recorded as normal comparing data before administration. Afterwards, it is adminstrated with a dosage of 30 mg/kg and a volume of 2 ml/kg through the stomach fistula. Blood pressures in 6 hours after administration are continuously recorded to observe changes of systolic blood pressure and diastolic blood pressure.

Kunming mice = test: Evaluation of toxicity (acute LD50, intragastric); conditions: one intragastric administration, 14 days observation, 0.5% CMC-Na
Description: as §1

[4] = Efficiency of active metabolism conversion (EXP3174 in blood plasma by HPLC after oral dosing); format: in vivo; conditions: SD rats, 20 mg/kg oral intragastric infusion, blood at 3 hours
Description: The SD rats are orally administrated by intragastric infusion with a dosage of 20 mg/kg. Blood samples are collected from an orbit at the time of 3 hours since the administration. The blood samples freely drop into centrifuge tubes. The sampling amount of blood is 0.3˜0.5 ml, and the blood plasma is centrifugalized. After the sample is pre-treated, the blood is analyzed by using HPLC method to get the amount of EXP3174 in the blood plasma. Based on the molar ratio of the amount of EXP3174 and the amount of administration dosage, a ratio of the experiment compounds being converted into active metabolite in vivo may be calculated.

CCCCc1nc(Cl)c(CO)n1Cc1ccc(-c2ccccc2-c2nn[nH]n2)cc1 [losartan potassium]
LD50 at 14 days (in vivo): 2000 mg/kg | Share of losartan potassium metabolized in vivo to its active substance EXP3174 [1]: 14% | Activity in reducing blood pressure as share of that of EXP3174 [2]: 3%

CCCCc1nc(Cl)c(C(=O)OC(C)OC(=O)OC2CCCCC2)n1Cc1ccc(-c2ccccc2-c2nnn[nH]2)cc1 (racemic) [Compound 7, (+/−)2-butyl-4-chloro-1-[2′-(1H-tetrazol-5-yl)1,1′-biphenyl-methyl]imidazole-5-carboxylic acid, 1-[(cyclohexyloxycarbonyl)oxy]ethyl ester]
Systolic blood pressure post-administration [3]: 157 mmHg | Diastolic blood pressure post-administration [3]: 103 mmHg

CCCCc1nc(Cl)c(C(=O)OCOC(=O)OC(C)C)n1Cc1ccc(-c2ccccc2-c2nnn[nH]2)cc1 [Compound 8, 2-butyl-4-chloro-1-[2′-(1H-tetrazol-5-yl)1,1′-biphenyl-methyl]imidazole-5-carboxylic acid, 1-[(isopropoxycarbonyl)oxy]methyl ester]
LD50 at 14 days (in vivo): > 10000 mg/kg | Systolic blood pressure post-administration [3]: 156 mmHg | Diastolic blood pressure post-administration [3]: 101 mmHg

CCCCc1nc(Cl)c(C(=O)OC(C)OC(=O)OC(C)C)n1Cc1ccc(-c2ccccc2-c2nnn[nH]2)cc1 (stereo not drawn) [Compound 5, 2-butyl-4-chloro-1-[2′-(1H-tetrazol-5-yl)1,1′-biphenyl-methyl]imidazole-5-carboxylic acid, 1-[(isopropoxycarbonyl)oxy]ethyl ester]
Systolic blood pressure post-administration [3]: 157 mmHg | Diastolic blood pressure post-administration [3]: 101 mmHg

CCCCc1nc(Cl)c(C(=O)OCOC(=O)C(C)(C)C)n1Cc1ccc(-c2ccccc2-c2nnn[nH]2)cc1 [Compound 4, 2-butyl-4-chloro-1-[2′-(1H-tetrazol-5-yl)1,1′-biphenyl-methyl]imidazole-5-carboxylic acid, pivaloyloxymethyl ester]
Systolic blood pressure post-administration [3]: 159 mmHg | Diastolic blood pressure post-administration [3]: 102 mmHg

CCCCc1nc(Cl)c(C(=O)OC2OC(=O)c3ccccc32)n1Cc1ccc(-c2ccccc2-c2nnn[nH]2)cc1 (racemic) [Compound 2, (+/−)2-butyl-4-chloro-1-[2′-(1H-tetrazol-5-yl)1,1′-biphenyl-methyl]imidazole-5-carboxylic acid, 2-[C]-benzofuranonyl ester]
Systolic blood pressure post-administration [3]: 155 mmHg | Diastolic blood pressure post-administration [3]: 105 mmHg | melting point: 120.6 to 124.6 °C

CCCCc1nc(Cl)c(C(=O)OCOC(=O)OC(C)(C)C)n1Cc1ccc(-c2ccccc2-c2nnn[nH]2)cc1 [Compound 10, 2-butyl-4-chloro-1-[2′-(1H-tetrazol-5-yl)1,1′-biphenyl-methyl]imidazole-5-carboxylic acid, 1-[(tert-butoxycarbonyl)oxy]methyl ester]
LD50 at 14 days (in vivo): > 10000 mg/kg | Systolic blood pressure post-administration [3]: 158 mmHg | Diastolic blood pressure post-administration [3]: 103 mmHg

CCCCc1nc(Cl)c(C(=O)OCc2oc(=O)oc2C)n1Cc1ccc(-c2ccccc2-c2nnn[nH]2)cc1 [Compound 3, 2-butyl-4-chloro-1-[2′-(1H-tetrazol-5-yl)1,1′-biphenyl-methyl]imidazole-5-carboxylic acid, cyclic 2,3-carbonate]
Systolic blood pressure post-administration [3]: 158 mmHg | Diastolic blood pressure post-administration [3]: 102 mmHg

CCCCc1nc(Cl)c(C(=O)OCOC(=O)OCC)n1Cc1ccc(-c2ccccc2-c2nnn[nH]2)cc1 [Compound 9, 2-butyl-4-chloro-1-[2′-(1H-tetrazol-5-yl)1,1′-biphenyl-methyl]imidazole-5-carboxylic acid, 1-[(ethoxycarbonyl)oxy]methyl ester]
LD50 at 14 days (in vivo): > 10000 mg/kg | Systolic blood pressure post-administration [3]: 159 mmHg | Diastolic blood pressure post-administration [3]: 104 mmHg

CCCCc1nc(Cl)c(C(=O)OCC)n1Cc1ccc(-c2ccccc2-c2nnn[nH]2)cc1 [Compound 1, 2-butyl-4-chloro-1-[2′-(1H-tetrazol-5-yl)1,1′-biphenyl-methyl]imidazole-5-carboxylic acid, ethyl ester]
Systolic blood pressure post-administration [3]: 159 mmHg | Diastolic blood pressure post-administration [3]: 103 mmHg

CCCCc1nc(Cl)c(C(=O)OC(C)OC(=O)OCC)n1Cc1ccc(-c2ccccc2-c2nn[nH]n2)cc1 (stereo not drawn) [HN-65021]
LD50 (Kunming mice): 5000 to 8000 mg/kg | metabolism conversion ratio (molar ratio of EXP3174 in blood plasma to administered dosage) [4]: 1.5%

CCCCc1nc(Cl)c(C(=O)OC(C)OC(=O)OC(C)(C)C)n1Cc1ccc(-c2ccccc2-c2nnn[nH]2)cc1 (stereo not drawn) [Compound 6, 2-butyl-4-chloro-1-[2′-(1H-tetrazol-5-yl)1,1′-biphenyl-methyl]imidazole-5-carboxylic acid, 1-[(tert-butoxycarbonyl)oxy]ethyl ester]
Systolic blood pressure post-administration [3]: 159 mmHg | Diastolic blood pressure post-administration [3]: 103 mmHg | melting point: 60.5 to 62 °C
